Measured values published in BindingDB's records for doi:10.1016/j.bmcl.2006.01.095 (Technische Universität Graz, 2006).

Assays:
[1] = Inhibition of jack beans alpha-mannosidase
[2] = Inhibition of Streptomyces plicatus beta-D-hexosaminidase

CN(C)c1ccc(-c2cnc(-c3ccc(S(=O)(=O)NCCCCCCN4C[C@H](O)[C@@H](O)[C@H](O)[C@H]4CO)cc3)o2)cc1 [4-(5-(4-(dimethylamino)phenyl)oxazol-2-yl)-N-(6-((2R,3R,4R,5S)-3,4,5-trihydroxy-2-(hydroxymethyl)piperidin-1-yl)hexyl)benzenesulfonamide]
Ki [1]: 65 µM

CC(=O)N[C@H]1CN(CCCCCCNS(=O)(=O)c2cccc3c(N(C)C)cccc23)[C@H](CO)[C@@H](O)[C@@H]1O [N-((3S,4R,5R,6R)-1-(6-(1-(dimethylamino)naphthalene-5-sulfonamido)hexyl)-4,5-dihydroxy-6-(hydroxymethyl)piperidin-3-yl)acetamide]
Ki [2]: 1.8 µM
